Reference: ChEMBL document CHEMBL3885861, “Open TG-GATES”

Species on record: Rattus norvegicus
Assay: Open TG-GATES - Regimen: Daily Repeat
Format: toxicity, organism-based, Sprague-Dawley
Design: regimen Daily Repeat, gender Male, age 6 weeks
Details: in vivo, po, route gavage; for APTT / Bas / Eos / Fbg / Hb / Ht / Lym / MCH / MCHC / Mono / Neu / Plat / RBC / Ret: tissue Blood; for KIDNEY_L / KIDNEY_R / KIDNEY_TOTAL: tissue Kidney; for LIVER: tissue Liver; for ALP / ALT / AST / BUN / CRE / Ca / Cl / DBIL / GLC / IP / K / LDH / Na / PL / RALB / TBIL / TC / TG / TP / gamma-GTP: tissue Plasma
[1] = 10 mg/kg, 72 h, dose level Middle, time 3 day
[2] = 10 mg/kg, […], dose level Middle, time 7 day
[3] = 10 mg/kg, […], dose level Middle, time 14 day
[4] = 10 mg/kg, […], dose level Middle, time 28 day
[5] = 30 mg/kg, 72 h, dose level High, time 3 day
[6] = 30 mg/kg, […], dose level High, time 7 day
[7] = 30 mg/kg, […], dose level High, time 14 day
[8] = 30 mg/kg, […], dose level High, time 28 day

O=C(CCCN1CCC(O)(c2ccc(Cl)cc2)CC1)c1ccc(F)cc1 [HALOPERIDOL]
TERMINAL_BW [1]: 211.5 g
APTT [1]: 16 s
Bas [1]: 0%
Eos [1]: 0.6%
Fbg [1]: 205.8 mg/dL
Hb [1]: 14.8 g/dL
Ht [1]: 44.6%
Lym [1]: 81.4%
MCH [1]: 21.3 pg
MCHC [1]: 33.3%
Mono [1]: 5.8%
Neu [1]: 12.2%
Plat [1]: 127.9 x10_4/uL
RBC [1]: 695.4 x10_4/ul
Ret [1]: 4.6%
KIDNEY_L [1]: 0.9 g
KIDNEY_R [1]: 0.9 g
KIDNEY_TOTAL [1]: 1.8 g
LIVER [1]: 10.3 g
ALP [1]: 873.2 IU/L
ALT [1]: 41 IU/L
AST [1]: 64 IU/L
BUN [1]: 22.2 mg/dL
CRE [1]: 0.5 mg/dL
Ca [1]: 11.3 mg/dL
Cl [1]: 106.2 meq/L
DBIL [1]: 0.002 mg/dL
GLC [1]: 180 mg/dL
IP [1]: 7.8 mg/dL
K [1]: 4.7 meq/L
LDH [1]: 95 IU/L
Na [1]: 138.8 meq/L
PL [1]: 177.8 mg/dL
RALB [1]: 4.2 g/dL
TBIL [1]: 0.2 mg/dL
TC [1]: 78.2 mg/dL
TG [1]: 156.2 mg/dL
TP [1]: 6.2 g/dL
gamma-GTP [1]: 1.2 IU/L
TERMINAL_BW [2]: 234.1 g
TERMINAL_BW [3]: 281.3 g
TERMINAL_BW [4]: 341 g
APTT [2]: 16.8 s
Bas [2]: 0%
Eos [2]: 0.4%
Fbg [2]: 215.6 mg/dL
Hb [2]: 15 g/dL
Ht [2]: 44.6%
Lym [2]: 75.4%
MCH [2]: 21 pg
MCHC [2]: 33.7%
Mono [2]: 5%
Neu [2]: 19.2%
Plat [2]: 99.5 x10_4/uL
RBC [2]: 717.6 x10_4/ul
Ret [2]: 3.7%
APTT [3]: 16.3 s
Bas [3]: 0%
Eos [3]: 0.2%
Fbg [3]: 212.2 mg/dL
Hb [3]: 14.7 g/dL
Ht [3]: 43.9%
Lym [3]: 75.6%
MCH [3]: 20.3 pg
MCHC [3]: 33.5%
Mono [3]: 4.2%
Neu [3]: 20%
Plat [3]: 93.8 x10_4/uL
RBC [3]: 722.2 x10_4/ul
Ret [3]: 3.6%
APTT [4]: 16 s
Bas [4]: 0%
Eos [4]: 0.4%
Fbg [4]: 220.6 mg/dL
Hb [4]: 15.3 g/dL
Ht [4]: 45.8%
Lym [4]: 78.8%
MCH [4]: 19.5 pg
MCHC [4]: 33.5%
Mono [4]: 5.6%
Neu [4]: 15.2%
Plat [4]: 95.6 x10_4/uL
RBC [4]: 788.6 x10_4/ul
Ret [4]: 2.6%
KIDNEY_L [2]: 1 g
KIDNEY_R [2]: 1 g
KIDNEY_TOTAL [2]: 1.9 g
KIDNEY_L [3]: 1.1 g
KIDNEY_R [3]: 1.1 g
KIDNEY_TOTAL [3]: 2.2 g
KIDNEY_L [4]: 1.2 g
KIDNEY_R [4]: 1.2 g
KIDNEY_TOTAL [4]: 2.4 g
LIVER [2]: 10.8 g
LIVER [3]: 12.3 g
LIVER [4]: 13.4 g
ALP [2]: 930.4 IU/L
ALT [2]: 38.6 IU/L
AST [2]: 66.8 IU/L
BUN [2]: 20.2 mg/dL
CRE [2]: 0.6 mg/dL
Ca [2]: 11.4 mg/dL
Cl [2]: 106.6 meq/L
DBIL [2]: 0.004 mg/dL
GLC [2]: 179.6 mg/dL
IP [2]: 7.3 mg/dL
K [2]: 4.6 meq/L
LDH [2]: 84.8 IU/L
Na [2]: 139 meq/L
PL [2]: 174.4 mg/dL
RALB [2]: 4 g/dL
TBIL [2]: 0.3 mg/dL
TC [2]: 84.8 mg/dL
TG [2]: 123.8 mg/dL
TP [2]: 6.2 g/dL
gamma-GTP [2]: 1.8 IU/L
ALP [3]: 773.8 IU/L
ALT [3]: 29.2 IU/L
AST [3]: 62.8 IU/L
BUN [3]: 19.8 mg/dL
CRE [3]: 0.4 mg/dL
Ca [3]: 10.7 mg/dL
Cl [3]: 107 meq/L
DBIL [3]: 0.036 mg/dL
GLC [3]: 184.2 mg/dL
IP [3]: 7.8 mg/dL
K [3]: 4.5 meq/L
LDH [3]: 83.2 IU/L
Na [3]: 138.4 meq/L
PL [3]: 156 mg/dL
RALB [3]: 4 g/dL
TBIL [3]: 0.3 mg/dL
TC [3]: 70.2 mg/dL
TG [3]: 146 mg/dL
TP [3]: 6.2 g/dL
gamma-GTP [3]: 1.6 IU/L
ALP [4]: 603.8 IU/L
ALT [4]: 32.4 IU/L
AST [4]: 66.8 IU/L
BUN [4]: 20.4 mg/dL
CRE [4]: 0.6 mg/dL
Ca [4]: 10.7 mg/dL
Cl [4]: 107.8 meq/L
DBIL [4]: 0.062 mg/dL
GLC [4]: 172.8 mg/dL
IP [4]: 6.4 mg/dL
K [4]: 4.7 meq/L
LDH [4]: 72 IU/L
Na [4]: 139.4 meq/L
PL [4]: 141 mg/dL
RALB [4]: 4.2 g/dL
TBIL [4]: 0.3 mg/dL
TC [4]: 63.6 mg/dL
TG [4]: 133.4 mg/dL
TP [4]: 6.7 g/dL
gamma-GTP [4]: 1.6 IU/L
TERMINAL_BW [5]: 179.6 g
APTT [5]: 15.7 s
Bas [5]: 0%
Eos [5]: 1%
Fbg [5]: 192.8 mg/dL
Hb [5]: 15.9 g/dL
Ht [5]: 47.3%
Lym [5]: 83.4%
MCH [5]: 21.2 pg
MCHC [5]: 33.6%
Mono [5]: 5%
Neu [5]: 10.6%
Plat [5]: 127.3 x10_4/uL
RBC [5]: 751.8 x10_4/ul
Ret [5]: 2.4%
KIDNEY_L [5]: 0.8 g
KIDNEY_R [5]: 0.9 g
KIDNEY_TOTAL [5]: 1.7 g
LIVER [5]: 7.7 g
ALP [5]: 686.4 IU/L
ALT [5]: 29.4 IU/L
AST [5]: 62 IU/L
BUN [5]: 28.2 mg/dL
CRE [5]: 0.6 mg/dL
Ca [5]: 11.2 mg/dL
Cl [5]: 108.6 meq/L
DBIL [5]: 0.002 mg/dL
GLC [5]: 162.2 mg/dL
IP [5]: 8.5 mg/dL
K [5]: 4.7 meq/L
LDH [5]: 176.8 IU/L
Na [5]: 142.2 meq/L
PL [5]: 159.6 mg/dL
RALB [5]: 4.4 g/dL
TBIL [5]: 0.2 mg/dL
TC [5]: 88.2 mg/dL
TG [5]: 80.8 mg/dL
TP [5]: 6.2 g/dL
gamma-GTP [5]: 1.2 IU/L
TERMINAL_BW [6]: 213.8 g
TERMINAL_BW [7]: 254.9 g
TERMINAL_BW [8]: 329.7 g
APTT [6]: 16.7 s
Bas [6]: 0%
Eos [6]: 0.4%
Fbg [6]: 189.6 mg/dL
Hb [6]: 15.4 g/dL
Ht [6]: 46.2%
Lym [6]: 82%
MCH [6]: 21 pg
MCHC [6]: 33.4%
Mono [6]: 6.8%
Neu [6]: 10.8%
Plat [6]: 89.5 x10_4/uL
RBC [6]: 735.6 x10_4/ul
Ret [6]: 2.5%
APTT [7]: 15.9 s
Bas [7]: 0%
Eos [7]: 0.4%
Fbg [7]: 195.2 mg/dL
Hb [7]: 15.4 g/dL
Ht [7]: 46.4%
Lym [7]: 84.6%
MCH [7]: 20 pg
MCHC [7]: 33.3%
Mono [7]: 3.4%
Neu [7]: 11.6%
Plat [7]: 94.6 x10_4/uL
RBC [7]: 773.4 x10_4/ul
Ret [7]: 2.9%
APTT [8]: 16.7 s
Bas [8]: 0%
Eos [8]: 0.6%
Fbg [8]: 210.2 mg/dL
Hb [8]: 15.2 g/dL
Ht [8]: 45.1%
Lym [8]: 84.4%
MCH [8]: 19.4 pg
MCHC [8]: 33.6%
Mono [8]: 3.6%
Neu [8]: 11.4%
Plat [8]: 96.5 x10_4/uL
RBC [8]: 782.8 x10_4/ul
Ret [8]: 2.6%
KIDNEY_L [6]: 0.9 g
KIDNEY_R [6]: 0.9 g
KIDNEY_TOTAL [6]: 1.8 g
KIDNEY_L [7]: 1 g
KIDNEY_R [7]: 1.1 g
KIDNEY_TOTAL [7]: 2.1 g
KIDNEY_L [8]: 1.2 g
KIDNEY_R [8]: 1.2 g
KIDNEY_TOTAL [8]: 2.4 g
LIVER [6]: 10.3 g
LIVER [7]: 10.8 g
LIVER [8]: 12.8 g
ALP [6]: 1009 IU/L
ALT [6]: 38.8 IU/L
AST [6]: 67.2 IU/L
BUN [6]: 25.4 mg/dL
CRE [6]: 0.5 mg/dL
Ca [6]: 11.8 mg/dL
Cl [6]: 106 meq/L
DBIL [6]: 0.008 mg/dL
GLC [6]: 164.2 mg/dL
IP [6]: 7.6 mg/dL
K [6]: 4.6 meq/L
LDH [6]: 154.4 IU/L
Na [6]: 140 meq/L
PL [6]: 175.6 mg/dL
RALB [6]: 4.1 g/dL
TBIL [6]: 0.2 mg/dL
TC [6]: 77.6 mg/dL
TG [6]: 113.6 mg/dL
TP [6]: 6.1 g/dL
gamma-GTP [6]: 1.6 IU/L
ALP [7]: 689.4 IU/L
ALT [7]: 30.2 IU/L
AST [7]: 65 IU/L
BUN [7]: 24 mg/dL
CRE [7]: 0.5 mg/dL
Ca [7]: 11 mg/dL
Cl [7]: 105.6 meq/L
DBIL [7]: 0.012 mg/dL
GLC [7]: 179.4 mg/dL
IP [7]: 7.8 mg/dL
K [7]: 4.7 meq/L
LDH [7]: 178.6 IU/L
Na [7]: 138.8 meq/L
PL [7]: 162.4 mg/dL
RALB [7]: 3.9 g/dL
TBIL [7]: 0.3 mg/dL
TC [7]: 76.2 mg/dL
TG [7]: 107.4 mg/dL
TP [7]: 6.1 g/dL
gamma-GTP [7]: 1.2 IU/L
ALP [8]: 528.8 IU/L
ALT [8]: 31.6 IU/L
AST [8]: 65.4 IU/L
BUN [8]: 25.6 mg/dL
CRE [8]: 0.5 mg/dL
Ca [8]: 11.1 mg/dL
Cl [8]: 107 meq/L
DBIL [8]: 0.076 mg/dL
GLC [8]: 177.8 mg/dL
IP [8]: 7.6 mg/dL
K [8]: 4.7 meq/L
LDH [8]: 138.6 IU/L
Na [8]: 140.2 meq/L
PL [8]: 148.6 mg/dL
RALB [8]: 3.9 g/dL
TBIL [8]: 0.2 mg/dL
TC [8]: 67 mg/dL
TG [8]: 136.8 mg/dL
TP [8]: 6.3 g/dL
gamma-GTP [8]: 2.2 IU/L
